Publication PMC10897196, “Structure–activity characteristics of phenylalanine analogs selectively transported by L-type amino acid transporter 1 (LAT1)” (Scientific Reports, 2024)

Tests used:
human LAT2 = target: T1, human LAT2 (Homo sapiens, UniProt Q9UHI5); assay: Efflux of pre-loaded L-[14C]alanine from HEK293-hLAT2 cells induced by extracellular compounds; assay type: cell-based; details: 1 min
T1 construct: expressed in transfected cells
T1 sequence (Q9UHI5 1-535): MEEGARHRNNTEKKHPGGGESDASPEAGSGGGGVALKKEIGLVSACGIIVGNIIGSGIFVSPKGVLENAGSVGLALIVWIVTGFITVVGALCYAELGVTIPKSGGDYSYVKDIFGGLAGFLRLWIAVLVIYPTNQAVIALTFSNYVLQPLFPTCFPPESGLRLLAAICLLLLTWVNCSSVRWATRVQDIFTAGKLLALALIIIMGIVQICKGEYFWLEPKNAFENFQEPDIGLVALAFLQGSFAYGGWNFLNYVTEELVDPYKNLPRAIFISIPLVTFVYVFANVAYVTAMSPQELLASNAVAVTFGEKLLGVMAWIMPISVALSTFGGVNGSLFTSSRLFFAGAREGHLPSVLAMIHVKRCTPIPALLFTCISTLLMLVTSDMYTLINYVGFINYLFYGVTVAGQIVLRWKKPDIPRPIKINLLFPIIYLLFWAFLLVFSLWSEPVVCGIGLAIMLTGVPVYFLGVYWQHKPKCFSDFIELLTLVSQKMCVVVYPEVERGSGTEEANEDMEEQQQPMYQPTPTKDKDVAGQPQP
T1 sequence (P08195 1-529 partner): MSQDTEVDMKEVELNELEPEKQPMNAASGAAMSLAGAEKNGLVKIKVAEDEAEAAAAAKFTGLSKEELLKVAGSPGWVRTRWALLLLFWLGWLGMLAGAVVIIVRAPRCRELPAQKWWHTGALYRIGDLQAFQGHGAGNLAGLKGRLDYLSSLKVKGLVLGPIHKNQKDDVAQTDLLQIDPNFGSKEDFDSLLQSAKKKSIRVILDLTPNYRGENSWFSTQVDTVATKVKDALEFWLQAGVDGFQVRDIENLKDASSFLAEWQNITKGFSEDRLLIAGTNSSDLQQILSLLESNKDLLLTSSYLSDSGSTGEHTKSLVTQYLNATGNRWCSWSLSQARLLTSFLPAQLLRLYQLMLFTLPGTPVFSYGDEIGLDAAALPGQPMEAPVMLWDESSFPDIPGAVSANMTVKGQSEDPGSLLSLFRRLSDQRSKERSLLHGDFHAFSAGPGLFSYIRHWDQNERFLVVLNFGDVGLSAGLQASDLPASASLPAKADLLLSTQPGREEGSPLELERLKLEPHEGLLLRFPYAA
Description: We evaluated the efflux of pre-loaded L-[^14C]leucine from LAT1 and pre-loaded L-[^14C]alanine from LAT2 induced by extracellularly applied compounds.
Efflux experiments were performed as described previously. Cells cultured 48 h were pre-loaded with 5 μM L-[^14C]leucine or L-[^14C]alanine for 10 min at 37 °C. The cells were then washed, and the efflux was induced by incubating cells for 1 min in either the absence or presence of non-radiolabeled test compounds at indicated concentrations. The efflux time of 1 min fell within the linear range of time-dependent substrate efflux mediated by LAT1 and LAT2 (Supplementary Fig. S2). Following incubation, the medium was collected and radioactivity was measured in both the medium and the cells. Efflux was quantified as the percentage of radioactivity released into the medium, calculated using the formula: radioactivity of medium/(radioactivity of medium + radioactivity of cells) × 100%.
The kinetic parameters for the efflux of L-[^14C]leucine or L-[^14C]alanine induced by various concentrations of extracellularly-applied test compounds were analyzed. The baseline efflux values—those obtained in the absence of test compounds—were subtracted from the values measured in the presence of the compounds. The resultant data were fitted to Michaelis–Menten kinetics to determine the Km and Vmax by nonlinear regression analysis using “enzyme kinetics-velocity as a function of substrate” module within GraphPad Prism software.

[1] = Tissue accumulation (plasma, tumor, small intestine) in B16-F10 tumor-bearing mice, HPLC; assay type: in vivo
Description: Female C57BL/6J mice were subcutaneously injected with 2 × 10^6 B16-F10 cells. The cells were prepared in a mixture containing a 1:1 volume ratio of phosphate-buffered saline (PBS) and Matrigel (Corning, New York, USA), with the total injection volume being 200 μL, administered into the dorsal flank. Tumor growth was measured bi-daily using calipers until tumors reached a size of approximately 300 ~ 500 mm^3, at which point they were deemed palpable. […] Blood samples were collected at 30 and 60 min post-administration. Then both the tumors and small intestines were excised and weighed for subsequent analysis by HPLC.
HPLC analyses were conducted as previously described. In brief, tumors and small intestines were homogenized in ice-cold PBS (3 times the tissue weight, v/w). The homogenates were then centrifuged at 15,000 ×g for 40 min at 4 °C. A 10 μL aliquot of the tissue supernatant or plasma was mixed with 190 μL of acetonitrile (MeCN) to precipitate proteins. This mixture was subsequently centrifuged at 15,000 ×g for 30 min at 4 °C. The resulting supernatant (100 μL) was dried, and the residue was reconstituted in 20 μL of 400 mM sodium borate (pH 8.0). Finally, 5 μL of 40 mM 4-fluoro-7-nitro-2,1,3-benzoxadiazole (NBD-F) in MeCN was added for fluorescence derivatization. HPLC analysis was carried out using a NANOSPACE SI-2 HPLC system (Shiseido, Tokyo, Japan) equipped with a fluorescence detector. […] The mobile phase consisted of MeCN, water, and trifluoroacetic acid (TFA) in a 27.5:72.5:0.05 (v/v/v) ratio, delivered at a flow rate of 200 μL/min.

LAT1 = system: LAT1; set-up: method as in PMID 1559223; details: in situ brain perfusion; cited from earlier work

N[C@]1(C(=O)O)CCc2ccccc2C1 [bicyclic-Phe, (R)-2-amino-1,2,3,4-tetrahydro-2-naphthoic acid]
Vmax of efflux (% radioactivity/min) (human LAT2; LAT2, L-[14C]alanine efflux, mean ± S.E.M., n = 3): 10.05 ± 0.27 % radioactivity/min | LAT2-mediated L-[14C]alanine efflux induced (in words) (human LAT2; compounds at 10, 30, 100 μM): not efficiently transported by LAT2 | Small intestine-to-plasma ratio (I/P) (in words) ([1]; 30 and 60 min after i.v., equimolar doses): significantly lower than that for 2-F-Tyr | Concentration in small intestine compared with plasma ([1]; i.v., normalized to tissue weight / plasma volume): lower than in plasma | Concentration in tumor compared with plasma ([1]; i.v., normalized to tissue weight / plasma volume, 2-F-Tyr at 60 min): higher than in plasma | Vmax of BBB transport relative to melphalan (LAT1): approximately seven times higher
